# Target: T1, SIRT1 (Homo sapiens, UniProt Q96EB6)
# T1 sequence (Q96EB6 1-747): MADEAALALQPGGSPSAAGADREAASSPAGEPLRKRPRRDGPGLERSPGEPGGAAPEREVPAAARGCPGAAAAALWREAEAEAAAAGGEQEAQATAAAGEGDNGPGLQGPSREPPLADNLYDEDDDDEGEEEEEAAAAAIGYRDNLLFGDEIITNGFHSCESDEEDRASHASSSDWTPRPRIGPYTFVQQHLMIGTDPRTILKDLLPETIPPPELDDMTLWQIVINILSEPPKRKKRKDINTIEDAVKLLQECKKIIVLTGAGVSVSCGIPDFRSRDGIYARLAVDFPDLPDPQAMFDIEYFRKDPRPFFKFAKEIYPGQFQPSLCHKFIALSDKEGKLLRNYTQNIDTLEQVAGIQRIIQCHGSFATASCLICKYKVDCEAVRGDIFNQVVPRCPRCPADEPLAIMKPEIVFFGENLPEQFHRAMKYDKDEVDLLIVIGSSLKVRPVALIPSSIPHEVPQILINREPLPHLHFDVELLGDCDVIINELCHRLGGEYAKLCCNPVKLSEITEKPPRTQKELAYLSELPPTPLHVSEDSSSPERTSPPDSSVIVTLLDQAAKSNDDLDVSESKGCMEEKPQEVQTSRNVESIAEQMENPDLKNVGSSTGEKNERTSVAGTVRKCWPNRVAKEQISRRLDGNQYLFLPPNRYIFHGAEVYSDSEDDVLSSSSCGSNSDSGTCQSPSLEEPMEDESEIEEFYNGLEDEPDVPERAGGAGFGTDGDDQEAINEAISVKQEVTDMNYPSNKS
# Assay: Mass spectrometry based SIRT1 deacetylation assay (activation)
# Assay type: biochemical
# Conditions: 10 nM SIRT1, 0.5 μM peptide substrate, 120 μM βNAD+, 25 min at 25° C.
# In short: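 Recombinant N-His-tagged SIRT1 (E. coli BL21(DE3)), 10 nM, incubated 25 min at 25 °C with 0.5 μM biotin/5TMR-labelled acetyl-p53-derived 20-mer peptide and 120 μM βNAD+ in Tris-acetate pH 8 buffer with DTT and BSA. Formic acid stop; MS quantifies acetylated vs deacetylated peptide. EC1.5 = concentration giving 150% activation versus DMSO.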
EC1.5 (concentration of test compound that results in 150% activation of SIRT1),% Fold Act. (percent maximum fold activation),SMILES
C (EC1.5>25 uM),–,O=C(Nc1ccncn1)c1cccc2ncc(-c3cccc(OC(F)(F)F)c3)nc12 [Compound 128]
A (EC1.5<1.0 uM),B (Fold Activation <200%),O=C(Nc1ccccn1)c1cccc2ncc(-c3cccc(C(F)(F)F)c3)nc12 [Compound 129]
A (EC1.5<1.0 uM),B (Fold Activation <200%),O=C(Nc1ccncn1)c1cccc2ncc(-c3cccc(C(F)(F)F)c3)nc12 [Compound 130]
A (EC1.5<1.0 uM),A (Fold activation >200%),O=C(Nc1nccs1)c1cccc2ccc(-c3cccc(OC4CCNCC4)c3)nc12 [Compound 131]
A (EC1.5<1.0 uM),A (Fold activation >200%),O=C(Nc1cccnc1)c1cccc2ccc(-c3cccc(OC4CCNCC4)c3)nc12 [Compound 132]
A (EC1.5<1.0 uM),A (Fold activation >200%),O=C(Nc1ccncn1)c1cccc2ccc(-c3cccc(OC4CCNCC4)c3)nc12 [Compound 133]
A (EC1.5<1.0 uM),A (Fold activation >200%),Cc1cnc(NC(=O)c2cccc3ccc(-c4cccc(OC5CCNCC5)c4)nc23)s1 [Compound 134]
C (EC1.5>25 uM),–,FC(F)(F)c1cccc(-c2ccc3cccc(NCc4cccnc4)c3n2)c1 [Compound 135]
C (EC1.5>25 uM),–,FC(F)(F)c1cccc(-c2ccc3cccc(NCc4ccccn4)c3n2)c1 [Compound 136]
C (EC1.5>25 uM),–,FC(F)(F)c1cccc(-c2ccc3cccc(NCc4nccs4)c3n2)c1 [Compound 137]
C (EC1.5>25 uM),–,FC(F)(F)c1cccc(-c2ccc3cccc(NCC4CCCC4)c3n2)c1 [Compound 138]
C (EC1.5>25 uM),–,FC(F)(F)Oc1cccc(-c2ccc3cccc(NCc4cccnc4)c3n2)c1 [Compound 139]
C (EC1.5>25 uM),–,FC(F)(F)Oc1cccc(-c2ccc3cccc(NCc4nccs4)c3n2)c1 [Compound 140]
C (EC1.5>25 uM),–,FC(F)(F)Oc1cccc(-c2ccc3cccc(NCC4CCCC4)c3n2)c1 [Compound 141]
A (EC1.5<1.0 uM),B (Fold Activation <200%),O=C(Nc1cccc2ccc(-c3cccnc3)nc12)c1cnccn1 [Compound 142]
C (EC1.5>25 uM),–,FC(F)(F)c1cccc(-c2ccc3cccc(CNC4CCCC4)c3n2)c1 [Compound 143]
C (EC1.5>25 uM),–,FC(F)(F)c1cccc(-c2ccc3cccc(CNC4CCOCC4)c3n2)c1 [Compound 144]
C (EC1.5>25 uM),–,c1cncc(CNc2cccc3ccc(-c4cccnc4)nc23)c1 [Compound 145]
C (EC1.5>25 uM),–,c1cncc(CNc2cccc3ccc(-c4ccncc4)nc23)c1 [Compound 146]
A (EC1.5<1.0 uM),A (Fold activation >200%),O=C(Nc1nc(CN2CCCC2)cs1)c1cccc2ccc(-c3cccc(C(F)(F)F)c3)nc12 [Compound 147]
A (EC1.5<1.0 uM),A (Fold activation >200%),O=C(Nc1nc(CN2CCCC2)cs1)c1cccc2ccc(-c3cccc(OC(F)(F)F)c3)nc12 [Compound 148]
A (EC1.5<1.0 uM),A (Fold activation >200%),O=C(Nc1ccc(OCC(O)CO)cc1)c1cccc2ccc(-c3cccc(C(F)(F)F)c3)nc12 (stereo not drawn) [Compound 149]

EC1.5 (concentration of test compound that results in 150% activation of SIRT1),% Fold Act. (percent maximum fold activation),SMILES
A (EC1.5<1.0 uM),A (Fold activation >200%),O=C(Nc1ccc(OCC(O)CO)cc1)c1cccc2ccc(-c3cccc(OC(F)(F)F)c3)nc12 (stereo not drawn) [Compound 150]
A (EC1.5<1.0 uM),A (Fold activation >200%),O=C(Nc1cccc(OCC(O)CO)c1)c1cccc2ccc(-c3cccc(C(F)(F)F)c3)nc12 (stereo not drawn) [Compound 151]
A (EC1.5<1.0 uM),A (Fold activation >200%),O=C(Nc1cccc(OCC(O)CO)c1)c1cccc2ccc(-c3cccc(OC(F)(F)F)c3)nc12 (stereo not drawn) [Compound 152]
C (EC1.5>25 uM),–,O=C(Nc1cccc2ccc(-c3cc(F)cc(C(F)(F)F)c3)nc12)c1ccccc1 [Compound 153]
A (EC1.5<1.0 uM),B (Fold Activation <200%),O=C(Nc1cccc2ccc(-c3ccc(F)c(C(F)(F)F)c3)nc12)c1ccccn1 [Compound 154]
C (EC1.5>25 uM),–,O=C(Nc1cccc2ccc(-c3ccncc3)nc12)c1cnccn1 [Compound 155]
C (EC1.5>25 uM),–,O=C(Nc1cccc2ccc(-c3cc(F)cc(C(F)(F)F)c3)nc12)c1cnccn1 [Compound 156]
C (EC1.5>25 uM),–,O=C(Nc1cccc2ccc(-c3ccc(F)c(C(F)(F)F)c3)nc12)c1cnccn1 [Compound 157]
C (EC1.5>25 uM),–,O=C(Nc1cccc2ccc(-c3ccc(F)c(C(F)(F)F)c3)nc12)c1cscn1 [Compound 158]
C (EC1.5>25 uM),–,O=C(Nc1cccc2ccc(-c3cc(F)cc(C(F)(F)F)c3)nc12)c1ccccn1 [Compound 159]
C (EC1.5>25 uM),–,O=C(Nc1cccc2ccc(-c3cc(F)cc(C(F)(F)F)c3)nc12)c1ccncc1 [Compound 160]
C (EC1.5>25 uM),–,O=C(Nc1cccc2ccc(-c3ccc(F)c(C(F)(F)F)c3)nc12)c1ccncc1 [Compound 161]
C (EC1.5>25 uM),–,FC(F)(F)c1ccccc1-c1ccc2cccc(NCc3cccnc3)c2n1 [Compound 162]
C (EC1.5>25 uM),–,CS(=O)(=O)c1cccc(-c2ccc3cccc(NCc4cccnc4)c3n2)c1 [Compound 163]
C (EC1.5>25 uM),–,c1cncc(CNc2cccc3ccc(-c4ccc5c(c4)OCO5)nc23)c1 [Compound 164]
C (EC1.5>25 uM),–,Fc1c(-c2ccc3cccc(NCc4cccnc4)c3n2)cccc1C(F)(F)F [Compound 165]
C (EC1.5>25 uM),–,Fc1ccc(-c2ccc3cccc(NCc4cccnc4)c3n2)cc1C(F)(F)F [Compound 166]
C (EC1.5>25 uM),–,Fc1ccc(C(F)(F)F)cc1-c1ccc2cccc(NCc3cccnc3)c2n1 [Compound 167]
C (EC1.5>25 uM),–,Fc1cc(-c2ccc3cccc(NCc4cccnc4)c3n2)cc(C(F)(F)F)c1 [Compound 168]
C (EC1.5>25 uM),–,O=C(Nc1cccc2ccc(-c3cc(F)cc(C(F)(F)F)c3)nc12)c1cscn1 [Compound 169]
C (EC1.5>25 uM),–,O=C(Nc1cccc2ccc(-c3ccc(F)c(C(F)(F)F)c3)nc12)c1ccccc1 [Compound 170]

# — patent publication US8685970B2, “Quinolines and related analogs as sirtuin modulators” (GlaxoSmithKline, LLC, priority 2008, dated 2014)
